Test results taken from patent publication US20250302775A1, “METHODS FOR THE TREATMENT OF DEPRESSION” (Autobahn Therapeutics, Inc., priority 2022, published 2025).

Molecular target: T1, recombinant human FAAH (rhFAAH) (Homo sapiens, UniProt O00519)
T1 construct: purchased Cayman Chemical (Ann Arbor, MI, USA)
T1 sequence (O00519 1-579): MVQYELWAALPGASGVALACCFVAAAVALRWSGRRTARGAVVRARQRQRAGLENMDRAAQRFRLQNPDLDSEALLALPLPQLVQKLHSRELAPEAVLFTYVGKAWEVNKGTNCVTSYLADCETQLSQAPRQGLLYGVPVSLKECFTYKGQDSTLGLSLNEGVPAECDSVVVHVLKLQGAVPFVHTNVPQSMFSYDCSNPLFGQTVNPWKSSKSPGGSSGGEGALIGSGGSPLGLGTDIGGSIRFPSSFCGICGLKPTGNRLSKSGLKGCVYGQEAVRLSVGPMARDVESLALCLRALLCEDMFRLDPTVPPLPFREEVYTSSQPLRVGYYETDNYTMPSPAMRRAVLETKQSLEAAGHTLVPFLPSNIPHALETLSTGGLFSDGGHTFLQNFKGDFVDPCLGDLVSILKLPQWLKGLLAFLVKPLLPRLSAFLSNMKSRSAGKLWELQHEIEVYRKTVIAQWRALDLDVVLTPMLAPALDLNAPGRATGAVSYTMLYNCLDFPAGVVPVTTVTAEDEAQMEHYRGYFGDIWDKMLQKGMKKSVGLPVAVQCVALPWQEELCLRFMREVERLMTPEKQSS
Test: FAAH substrate evaluation: formation of acid metabolite
Assay type: biochemical
Settings: 0.5 ng/μL rhFAAH, 1 μM test compound, room temperature, pH 8.0, 0-60 minutes
Method: Purified recombinant human FAAH (rhFAAH) was purchased from Cayman Chemical (Ann Arbor, MI, USA). The total volume for each incubation was 400 μL containing a final 0.5 ng/μL rhFAAH, 1 μM test compound, 1.25% ethanol or 1 μM PF-3845 (FAAH inhibitor), and 0.1% bovine serum albumin in Tris-EDTA buffer at pH 8.0). The positive control was LL-341001. The incubation was conducted at the room temperature. At 0, 5, 15, 30 and 60 minutes, an aliquot of 30 μL reaction mixtures was removed and mixed with 300 μL acetonitrile containing 5 ng/mL terfenadine and 10 ng/mL tolbutamide as internal standards to quench the reaction. The resulting mixture was centrifuged at 4000 rpm, 4° C. for 15 minutes, and 100 μL supernatant was ready for LC-MS/MS analysis to measure the formation of acid metabolite.
Acquity Ultra Performance LC system from Waters was used for sample analysis. The chromatography was performed on a reverse phase Kinetex 2.6 μm C18 column, 2.1×30 mm, 100 Å. The mobile phase A comprised of 0.1% formic acid in water and mobile phase B comprised of 0.1% formic acid in acetonitrile with a 2-min run time at the flow rate of 0.8 mL/min for the acid metabolite from positive control or a 1.5 min run time at the flow rate of 0.9 mL/min for the acid metabolite of test compounds. The mass spectrometer (API-5500 and API Q Trap 4000 Applied Biosystems/MDS SCIEX Instruments, Framingham, MA, USA) was operated under ESI positive or negative ion MRM mode.
The formation of acid metabolite was monitored and quantified using one calibration point of 1 μM. The observed rate constant (ke) for the acid metabolite formation was calculated by plotting the metabolite concentration versus time of incubation with the slope being ke and is shown in Table 1.

| ke (observed rate constant for the acid metabolite formation) | SMILES |
| --- | --- |
| A (A = ke is more than or equal to 0.1) | CCNC(=O)COc1cc(Cl)c(Cc2ccc(O)c(C(C)C)c2)c(Cl)c1 [Compound 2] |
| A (A = ke is more than or equal to 0.1) | CCCNC(=O)COc1cc(Cl)c(Cc2ccc(O)c(C(C)C)c2)c(Cl)c1 [Compound 3] |
| A (A = ke is more than or equal to 0.1) | C#CCNC(=O)COc1cc(Cl)c(Cc2ccc(O)c(C(C)C)c2)c(Cl)c1 [Compound 5] |
| A (A = ke is more than or equal to 0.1) | CC(C)c1cc(Cc2c(Cl)cc(OCC(=O)NCCO)cc2Cl)ccc1O [Compound 6] |
| A (A = ke is more than or equal to 0.1) | CC(C)c1cc(Cc2c(Cl)cc(OCC(=O)N[C@H](C)CO)cc2Cl)ccc1O [Compound 9] |
| A (A = ke is more than or equal to 0.1) | CC(C)c1cc(Cc2c(Cl)cc(OCC(=O)NCC(F)F)cc2Cl)ccc1O [Compound 15] |
| A (A = ke is more than or equal to 0.1) | CC(C)c1cc(Cc2c(Cl)cc(OCC(=O)NCC(F)(F)F)cc2Cl)ccc1O [Compound 16] |
| A (A = ke is more than or equal to 0.1) | CC(C)c1cc(Cc2c(Cl)cc(OCC(=O)NC3CC3)cc2Cl)ccc1O [Compound 17] |
| A (A = ke is more than or equal to 0.1) | CC(C)c1cc(Cc2c(Cl)cc(OCC(=O)NC3COC3)cc2Cl)ccc1O [Compound 18] |
| A (A = ke is more than or equal to 0.1) | CC(C)c1cc(Cc2c(Cl)cc(OCC(=O)Nc3ccccc3O)cc2Cl)ccc1O [Compound 20] |
| A (A = ke is more than or equal to 0.1) | CC(C)c1cc(Cc2c(Cl)cc(OCC(=O)Nc3cccc(O)c3)cc2Cl)ccc1O [Compound 21] |
| A (A = ke is more than or equal to 0.1) | CC(C)c1cc(Cc2c(Cl)cc(OCC(=O)NCc3ccccc3)cc2Cl)ccc1O [Compound 22] |
| A (A = ke is more than or equal to 0.1) | CC(C)c1cc(Cc2c(Cl)cc(OCC(=O)NO)cc2Cl)ccc1O [Compound 26] |
| A (A = ke is more than or equal to 0.1) | CONC(=O)COc1cc(Cl)c(Cc2ccc(O)c(C(C)C)c2)c(Cl)c1 [Compound 28] |
| A (A = ke is more than or equal to 0.1) | CC(C)c1cc(Cc2c(Cl)cc(OCC(=O)NCCS(C)(=O)=O)cc2Cl)ccc1O [Compound 30] |
| A (A = ke is more than or equal to 0.1) | CC(C)c1c(O)ccc(Cc2c(Cl)cc(OCC(=O)N(C)C)cc2Cl)c1F [Compound 32] |
| A (A = ke is more than or equal to 0.1) | CCNC(=O)COc1cc(Cl)c(Cc2ccc(O)c(C(C)C)c2F)c(Cl)c1 [Compound 33] |
| A (A = ke is more than or equal to 0.1) | CC(C)c1c(O)ccc(Cc2c(Cl)cc(OCC(N)=O)cc2Cl)c1F [Compound 35] |
| A (A = ke is more than or equal to 0.1) | CC(C)c1c(O)ccc(Cc2c(Cl)cc(OCC(=O)NCCF)cc2Cl)c1F [Compound 36] |
| A (A = ke is more than or equal to 0.1) | CNC(=O)COc1cc(F)c(Cc2ccc(O)c(C(C)C)c2)c(Cl)c1F [Compound 42] |
| A (A = ke is more than or equal to 0.1) | CON(C)C(=O)COc1cc(Cl)c(Cc2ccc(O)c(C(C)C)c2F)c(Cl)c1 [Compound 44] |
| A (A = ke is more than or equal to 0.1) | COc1ccc(NC(=O)COc2cc(Cl)c(Cc3ccc(O)c(C(C)C)c3)c(Cl)c2)cn1 [Compound 101] |
| A (A = ke is more than or equal to 0.1) | Cc1noc(NC(=O)COc2cc(Cl)c(Cc3ccc(O)c(C(C)C)c3)c(Cl)c2)c1C [Compound 103] |
| C (C = ke is 0) | CC(C)c1cc(Cc2c(Cl)cc(OCC(=O)NC3CCCCC3)cc2Cl)ccc1O [Compound 105] |

Further lines, the compound ahead of its results:

| SMILES | ke (observed rate constant for the acid metabolite formation) |
| --- | --- |
| C=CCNC(=O)COc1cc(Cl)c(Cc2ccc(O)c(C(C)C)c2)c(Cl)c1 [Compound 4] | A (A = ke is more than or equal to 0.1) |
| CC(C)c1cc(Cc2c(Cl)cc(OCC(=O)NC[C@@H](C)O)cc2Cl)ccc1O [Compound 7] | B (B = ke is less than 0.1 and more than 0) |
| CC(C)c1cc(Cc2c(Cl)cc(OCC(=O)NC[C@H](C)O)cc2Cl)ccc1O [Compound 8] | B (B = ke is less than 0.1 and more than 0) |
| CC(C)c1cc(Cc2c(Cl)cc(OCC(=O)N[C@@H](C)CO)cc2Cl)ccc1O [Compound 10] | A (A = ke is more than or equal to 0.1) |
| CC(C)c1cc(Cc2c(Cl)cc(OCC(=O)NC(CO)CO)cc2Cl)ccc1O [Compound 11] | B (B = ke is less than 0.1 and more than 0) |
| CC(C)c1cc(Cc2c(Cl)cc(OCC(=O)NCCN)cc2Cl)ccc1O [Compound 12] | B (B = ke is less than 0.1 and more than 0) |
| CC(C)c1cc(Cc2c(Cl)cc(OCC(=O)NCCS(=O)O)cc2Cl)ccc1O [Compound 13] | B (B = ke is less than 0.1 and more than 0) |
| CC(C)c1cc(Cc2c(Cl)cc(OCC(=O)NCCF)cc2Cl)ccc1O [Compound 14] | A (A = ke is more than or equal to 0.1) |
| CC(C)c1cc(Cc2c(Cl)cc(OCC(=O)N(C)C)cc2Cl)ccc1O [Compound 19] | B (B = ke is less than 0.1 and more than 0) |
| CC(C)c1cc(Cc2c(Cl)cc(OCC(=O)NCCc3ccccc3)cc2Cl)ccc1O [Compound 23] | B (B = ke is less than 0.1 and more than 0) |
| CC(C)c1cc(Cc2c(Cl)cc(OCC(=O)NCCc3ccc(O)c(O)c3)cc2Cl)ccc1O [Compound 24] | B (B = ke is less than 0.1 and more than 0) |
| CC(C)c1cc(Cc2c(Cl)cc(OCC(=O)Nc3cccc(F)c3)cc2Cl)ccc1O [Compound 25] | A (A = ke is more than or equal to 0.1) |
| CC(C)c1cc(Cc2c(Cl)cc(OCC(=O)NN)cc2Cl)ccc1O [Compound 27] | A (A = ke is more than or equal to 0.1) |
| CC(C)c1cc(Cc2c(Cl)cc(OCC(=O)NCC#N)cc2Cl)ccc1O [Compound 29] | A (A = ke is more than or equal to 0.1) |
| CCN(C)C(=O)COc1cc(Cl)c(Cc2ccc(O)c(C(C)C)c2F)c(Cl)c1 [Compound 34] | C (C = ke is 0) |
| CNC(=O)COc1cc(Cl)c(Cc2ccc(O)c(C(C)C)c2)c(Cl)c1F [Compound 37] | B (B = ke is less than 0.1 and more than 0) |
| CC(C)c1cc(Cc2c(Cl)cc(OCC(=O)N(C)C)c(F)c2Cl)ccc1O [Compound 38] | B (B = ke is less than 0.1 and more than 0) |
| CNC(=O)COc1cc(Cl)c(Cc2ccc(O)c(C(C)C)c2F)c(Cl)c1F [Compound 39] | B (B = ke is less than 0.1 and more than 0) |
| CC(C)c1c(O)ccc(Cc2c(Cl)cc(OCC(=O)N(C)C)c(F)c2Cl)c1F [Compound 40] | B (B = ke is less than 0.1 and more than 0) |
| CC(C)c1c(O)ccc(Cc2c(Cl)cc(OCC(=O)NN(C)C)cc2Cl)c1F [Compound 45] | A (A = ke is more than or equal to 0.1) |
| CC(C)c1cc(Cc2c(Cl)cc(OCC(=O)Nc3cnccn3)cc2Cl)ccc1O [Compound 102] | A (A = ke is more than or equal to 0.1) |
| CC(C)c1cc(Cc2c(Cl)cc(OCC(=O)Nc3cccnn3)cc2Cl)ccc1O [Compound 104] | A (A = ke is more than or equal to 0.1) |
